US4464385A, “Treatment of diabetic complications with hydantoins” (Alcon Laboratories, Inc., priority 1982, dated 1984)

Test system: cataracts in rats
Assay: Prevention or retardation of cataracts in galactose-fed rats
Type: in vivo, rat
Conditions: 30% galactose diet, A,C,E 0.0025%, B,D 0.01%
Procedure: The compounds to be tested were:
Test compound/diet mixtures were formulated as follows: […]
Similarly, the 0.01% level was designed to provide a drug concentration of 20 mg per kilogram per day.
All animals were fed the Purina Laboratory Chow and water, ad libitum for a two day acclimatization period. The indicated test compound/diet mixture then was introduced to all animals on Study Day 1 and the animals were maintained on this diet throughout thirty days of the study.
Sufficient amounts of test compound/diet mixture were maintained in the food hoppers to allow the animals to eat ad libitum. All aliquots of test compound/diet mixture added to the food hoopers were weighed and the weights, as well as day of addition, recorded.
Twelve animals were assigned to each treatment with each compound at the indicated percentage by total weight of feed. All eyes were examined with a handheld ophthalmoscope and/or penlight.

**Q.** Which results are given for `CSc1ccc2c(c1)C1(CCO2)NC(=O)NC1=O` (stereo not drawn) [B]?
**A.** % of Total Eyes, + (vacuole) (Study Day 2): 0%; % of Total Eyes, - (Normal) (Study Day 2): 100.0%; % of Total Eyes, N (nuclear cataract) (Study Day 2): 0%; % of Total Eyes, S (snowflake) (Study Day 2): 0%; Number of Eyes Observed, + (vacuole) (Study Day 2): 0 eyes; Number of Eyes Observed, - (Normal) (Study Day 2): 24 eyes; Number of Eyes Observed, N (nuclear cataract) (Study Day 2): 0 eyes; Number of Eyes Observed, S (snowflake) (Study Day 2): 0 eyes; Number of Eyes Observed, ± (Study Day 2): 0 eyes; % of Total Eyes, + (vacuole) (Study Day 3): 0%; % of Total Eyes, - (Normal) (Study Day 3): 100.0%; % of Total Eyes, N (nuclear cataract) (Study Day 3): 0%; % of Total Eyes, S (snowflake) (Study Day 3): 0%; Number of Eyes Observed, + (vacuole) (Study Day 3): 0 eyes; Number of Eyes Observed, - (Normal) (Study Day 3): 24 eyes; Number of Eyes Observed, N (nuclear cataract) (Study Day 3): 0 eyes; Number of Eyes Observed, S (snowflake) (Study Day 3): 0 eyes; Number of Eyes Observed, ± (Study Day 3): 0 eyes; % of Total Eyes, + (vacuole) (Study Day 4): 0%; % of Total Eyes, - (Normal) (Study Day 4): 100.0%; % of Total Eyes, N (nuclear cataract) (Study Day 4): 0%; % of Total Eyes, S (snowflake) (Study Day 4): 0%; Number of Eyes Observed, + (vacuole) (Study Day 4): 0 eyes; Number of Eyes Observed, - (Normal) (Study Day 4): 24 eyes; Number of Eyes Observed, N (nuclear cataract) (Study Day 4): 0 eyes; Number of Eyes Observed, S (snowflake) (Study Day 4): 0 eyes; Number of Eyes Observed, ± (Study Day 4): 0 eyes; % of Total Eyes, + (vacuole) (Study Day 5): 0%; % of Total Eyes, - (Normal) (Study Day 5): 91.7%; % of Total Eyes, N (nuclear cataract) (Study Day 5): 0%; % of Total Eyes, S (snowflake) (Study Day 5): 0%; Number of Eyes Observed, + (vacuole) (Study Day 5): 0 eyes; Number of Eyes Observed, - (Normal) (Study Day 5): 22 eyes; Number of Eyes Observed, N (nuclear cataract) (Study Day 5): 0 eyes; Number of Eyes Observed, S (snowflake) (Study Day 5): 0 eyes; Number of Eyes Observed, ± (Study Day 5): 2 eyes; % of Total Eyes, + (vacuole) (Study Day 6): 0%; % of Total Eyes, - (Normal) (Study Day 6): 62.5%; % of Total Eyes, N (nuclear cataract) (Study Day 6): 0%; % of Total Eyes, S (snowflake) (Study Day 6): 0%; Number of Eyes Observed, + (vacuole) (Study Day 6): 0 eyes; Number of Eyes Observed, - (Normal) (Study Day 6): 15 eyes; Number of Eyes Observed, N (nuclear cataract) (Study Day 6): 0 eyes; Number of Eyes Observed, S (snowflake) (Study Day 6): 0 eyes; Number of Eyes Observed, ± (Study Day 6): 9 eyes; % of Total Eyes, + (vacuole) (Study Day 8): 8.3%; % of Total Eyes, - (Normal) (Study Day 8): 41.6%; % of Total Eyes, N (nuclear cataract) (Study Day 8): 0%; % of Total Eyes, S (snowflake) (Study Day 8): 0%; Number of Eyes Observed, + (vacuole) (Study Day 8): 2 eyes; Number of Eyes Observed, - (Normal) (Study Day 8): 10 eyes; Number of Eyes Observed, N (nuclear cataract) (Study Day 8): 0 eyes; Number of Eyes Observed, S (snowflake) (Study Day 8): 0 eyes; Number of Eyes Observed, ± (Study Day 8): 12 eyes; % of Total Eyes, + (vacuole) (Study Day 10): 25.0%; % of Total Eyes, - (Normal) (Study Day 10): 37.5%; % of Total Eyes, N (nuclear cataract) (Study Day 10): 0%; % of Total Eyes, S (snowflake) (Study Day 10): 0%; Number of Eyes Observed, + (vacuole) (Study Day 10): 6 eyes; Number of Eyes Observed, - (Normal) (Study Day 10): 9 eyes; Number of Eyes Observed, N (nuclear cataract) (Study Day 10): 0 eyes; Number of Eyes Observed, S (snowflake) (Study Day 10): 0 eyes; Number of Eyes Observed, ± (Study Day 10): 9 eyes; % of Total Eyes, + (vacuole) (Study Day 12): 41.6%; % of Total Eyes, - (Normal) (Study Day 12): 29.2%; % of Total Eyes, N (nuclear cataract) (Study Day 12): 0%; % of Total Eyes, S (snowflake) (Study Day 12): 0%; Number of Eyes Observed, + (vacuole) (Study Day 12): 10 eyes; Number of Eyes Observed, - (Normal) (Study Day 12): 7 eyes; Number of Eyes Observed, N (nuclear cataract) (Study Day 12): 0 eyes; Number of Eyes Observed, S (snowflake) (Study Day 12): 0 eyes; Number of Eyes Observed, ± (Study Day 12): 7 eyes; % of Total Eyes, + (vacuole) (Study Day 14): 78.0%; % of Total Eyes, - (Normal) (Study Day 14): 12.5%; % of Total Eyes, N (nuclear cataract) (Study Day 14): 0%; % of Total Eyes, S (snowflake) (Study Day 14): 0%; Number of Eyes Observed, + (vacuole) (Study Day 14): 18 eyes; Number of Eyes Observed, - (Normal) (Study Day 14): 3 eyes; Number of Eyes Observed, N (nuclear cataract) (Study Day 14): 0 eyes; Number of Eyes Observed, S (snowflake) (Study Day 14): 0 eyes; Number of Eyes Observed, ± (Study Day 14): 3 eyes; % of Total Eyes, + (vacuole) (Study Day 16): 83.3%; % of Total Eyes, - (Normal) (Study Day 16): 0%; % of Total Eyes, N (nuclear cataract) (Study Day 16): 0%; % of Total Eyes, S (snowflake) (Study Day 16): 0%; Number of Eyes Observed, + (vacuole) (Study Day 16): 20 eyes; Number of Eyes Observed, - (Normal) (Study Day 16): 0 eyes; Number of Eyes Observed, N (nuclear cataract) (Study Day 16): 0 eyes; Number of Eyes Observed, S (snowflake) (Study Day 16): 0 eyes; Number of Eyes Observed, ± (Study Day 16): 4 eyes; % of Total Eyes, + (vacuole) (Study Day 18): 95.8%; % of Total Eyes, - (Normal) (Study Day 18): 0%; % of Total Eyes, N (nuclear cataract) (Study Day 18): 0%; % of Total Eyes, S (snowflake) (Study Day 18): 0%; Number of Eyes Observed, + (vacuole) (Study Day 18): 23 eyes; Number of Eyes Observed, - (Normal) (Study Day 18): 0 eyes; Number of Eyes Observed, N (nuclear cataract) (Study Day 18): 0 eyes; Number of Eyes Observed, S (snowflake) (Study Day 18): 0 eyes; Number of Eyes Observed, ± (Study Day 18): 1 eyes; % of Total Eyes, + (vacuole) (Study Day 20): 91.7%; % of Total Eyes, - (Normal) (Study Day 20): 0%; % of Total Eyes, N (nuclear cataract) (Study Day 20): 0%; % of Total Eyes, S (snowflake) (Study Day 20): 4.2%; Number of Eyes Observed, + (vacuole) (Study Day 20): 22 eyes; Number of Eyes Observed, - (Normal) (Study Day 20): 0 eyes; Number of Eyes Observed, N (nuclear cataract) (Study Day 20): 0 eyes; Number of Eyes Observed, S (snowflake) (Study Day 20): 1 eyes; Number of Eyes Observed, ± (Study Day 20): 1 eyes; % of Total Eyes, + (vacuole) (Study Day 22): 70.8%; % of Total Eyes, - (Normal) (Study Day 22): 0%; % of Total Eyes, N (nuclear cataract) (Study Day 22): 0%; % of Total Eyes, S (snowflake) (Study Day 22): 29.2%; Number of Eyes Observed, + (vacuole) (Study Day 22): 17 eyes; Number of Eyes Observed, - (Normal) (Study Day 22): 0 eyes; Number of Eyes Observed, N (nuclear cataract) (Study Day 22): 0 eyes; Number of Eyes Observed, S (snowflake) (Study Day 22): 7 eyes; Number of Eyes Observed, ± (Study Day 22): 0 eyes; % of Total Eyes, + (vacuole) (Study Day 24): 45.8%; % of Total Eyes, - (Normal) (Study Day 24): 0%; % of Total Eyes, N (nuclear cataract) (Study Day 24): 0%; % of Total Eyes, S (snowflake) (Study Day 24): 54.2%; Number of Eyes Observed, + (vacuole) (Study Day 24): 11 eyes; Number of Eyes Observed, - (Normal) (Study Day 24): 0 eyes; Number of Eyes Observed, N (nuclear cataract) (Study Day 24): 0 eyes; Number of Eyes Observed, S (snowflake) (Study Day 24): 13 eyes; Number of Eyes Observed, ± (Study Day 24): 0 eyes; % of Total Eyes, + (vacuole) (Study Day 26): 20.8%; % of Total Eyes, - (Normal) (Study Day 26): 0%; % of Total Eyes, N (nuclear cataract) (Study Day 26): 0%; % of Total Eyes, S (snowflake) (Study Day 26): 79.2%; Number of Eyes Observed, + (vacuole) (Study Day 26): 5 eyes; Number of Eyes Observed, - (Normal) (Study Day 26): 0 eyes; Number of Eyes Observed, N (nuclear cataract) (Study Day 26): 0 eyes; Number of Eyes Observed, S (snowflake) (Study Day 26): 19 eyes; Number of Eyes Observed, ± (Study Day 26): 0 eyes; % of Total Eyes, + (vacuole) (Study Day 28): 8.3%; % of Total Eyes, - (Normal) (Study Day 28): 0%; % of Total Eyes, N (nuclear cataract) (Study Day 28): 0%; % of Total Eyes, S (snowflake) (Study Day 28): 91.7%; Number of Eyes Observed, + (vacuole) (Study Day 28): 2 eyes; Number of Eyes Observed, - (Normal) (Study Day 28): 0 eyes; Number of Eyes Observed, N (nuclear cataract) (Study Day 28): 0 eyes; Number of Eyes Observed, S (snowflake) (Study Day 28): 22 eyes; Number of Eyes Observed, ± (Study Day 28): 0 eyes; % of Total Eyes, + (vacuole) (Study Day 30): 4.2%; % of Total Eyes, - (Normal) (Study Day 30): 0%; % of Total Eyes, N (nuclear cataract) (Study Day 30): 0%; % of Total Eyes, S (snowflake) (Study Day 30): 95.8%; Number of Eyes Observed, + (vacuole) (Study Day 30): 1 eyes; Number of Eyes Observed, - (Normal) (Study Day 30): 0 eyes; Number of Eyes Observed, N (nuclear cataract) (Study Day 30): 0 eyes; Number of Eyes Observed, S (snowflake) (Study Day 30): 23 eyes; Number of Eyes Observed, ± (Study Day 30): 0 eyes
